Laboratory results from patent publication EP4656630A1, “NOVEL COMPOUND AS LYSYL-TRNA SYNTHETASE 1 INHIBITOR, AND USE THEREOF” (Zymedi Co., Ltd., priority 2023, dated 2024).
pEC50: −log10 of the molar value.

How the values were obtained:
[1] = Microsomal metabolic stability, rat; format: in vitro ADME
Experimental: (§1) Metabolic stability (MS) evaluation was conducted for the selected compounds by measuring in vitro stability in two species, rat and human, according to the microsomal stability measurement method. As a result, it was identified that MS varied depending on the transformation of parts A, B, and C.

Raw264.7 cells = experiment: KARS1-induced trans-migration assay; format: cell-based, mouse; conditions: Mus musculus, RAW264.7; for inhibition at 1 µM: 1 µM compound, read-out: KARS1-induced Raw264.7 cell migration (% inhibition, 1uM)
Experimental: C0001 inhibits the binding of KARS1 and 67LR, thereby blocking the migration of monocytes/macrophages and suppressing inflammation. Accordingly, a trans-migration assay using mouse macrophages (Raw264.7) was conducted to preliminarily screen drugs that inhibit the migration of monocytes/macrophages.
Based on this, when KARS1 protein was directly treated externally instead of LN, the trans-migration of Raw264.7 was induced, and the cell migration inhibitory effect of the KARS1 inhibitor C0001 was confirmed. It was verified that C0001, which specifically binds to KARS1, can inhibit cell migration by binding to extracellular KARS1, in addition to the mechanism of inhibiting cell membrane migration of KARS1 induced by laminin and its binding to 67LR, thereby enabling this analysis to be used as a direct method for evaluating in vitro activity against KARS1.
Next, preliminary candidate substances with high inhibitory activity at 1 µM were treated at concentrations of 0.1~4 µM for analysis.

KARS1 and 37LR = biological target: T1, KARS1 and 37LR (Homo sapiens, UniProt Q15046); experiment: Cell-free ELISA of KARS1 and 37LR (laminin receptor) binding; conditions: 10 µM compound, 1 hour, plate coated with KARS1 (1-207aa), LRF
T1 construct: KARS1 (1-207aa)
T1 sequence (Q15046 1-207): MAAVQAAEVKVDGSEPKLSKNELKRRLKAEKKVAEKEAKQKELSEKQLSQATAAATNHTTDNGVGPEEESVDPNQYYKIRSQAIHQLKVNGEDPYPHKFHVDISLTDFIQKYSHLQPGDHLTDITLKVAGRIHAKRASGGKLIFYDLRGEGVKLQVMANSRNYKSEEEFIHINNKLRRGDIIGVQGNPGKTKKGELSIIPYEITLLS
Experimental: Next, based on the mechanism of action, a cell-free ELISA analysis was conducted to select compounds with high inhibitory activity on the binding of KARS1 and LR (laminin receptor).

Raw 264.7 cells = experiment: LN (Laminin 421)-induced immune cell migration, Transwell; format: cell-based; conditions: Mus musculus, RAW264.7; for inhibition at 3 µM: 3 µM compound, LN (Laminin 421 1 µg/ml), 24 hours, % inhibition compared to control group, read-out: Migration inhibitor % (3uM)
Experimental: Cell migration was assessed based on the method described in the prior literature (Park, S. G. et al. Human lysyl-tRNA synthetase is secreted to trigger proinflammatory response. Proceedings of the National Academy of Sciences, 2005, 102.18: 6356-6361.). The specific experimental method is as follows. A Transwell (Corning#3421-5µm pore) was coated with gelatin (0.5mg/ml), and then Raw 264.7 cells (1 x 10^5 cells/well) were seeded in the upper chamber. Serum-free medium (Serum Free DMEM, 500 µl) containing LN (Laminin 421 1 µg/ml) was added to the lower chamber. Each compound was treated at a concentration of 3µM in the upper chamber. After 24 hours, the cells were fixed with 70% methanol for 30 minutes and stained with 50% hematoxylin for 30 minutes. Non-migrating cells on the upper side of the membrane were removed with a cotton swab, and the membrane was mounted on a slide. Migrating cells on the lower side of the membrane were observed under a high-power microscope, and the number of cells was measured from the obtained images and expressed as the inhibition rate (% inhibition) compared to the control group.

[2] = Microsomal metabolic stability, human; format: in vitro ADME
Experimental: as §1

[3] = Rat pharmacokinetics (po and iv) and bioavailability; format: in vivo; conditions: for Cmax / Tmax / half-life / AUC: in vivo
Experimental: For this purpose, formulations suitable for peroral administration (po) and intravenous injection (iv) for each compound were first selected to ensure stable PK progression.
The formulation was selected under the condition of maintaining a clear solution for more than 1 hour at 10 and 30 mpk doses based on po, and the iv formulation was modified when iv use was not possible based on po (Table 8).
To confirm the oral administration potential of the selected compounds, 10 mpk rat po PK was conducted. The PK profile and key indicators after administering 10 mpk to five compounds, C0001, 25, 41, 42, and 43, are shown in Figure 3 and Table 9.
Based on the previous 10 mpk po rat PK results, 30 mpk po rat PK was conducted for four compounds, C0001, 25, 41, and 43, to confirm changes in the blood PK profile of the substances with increasing doses.
For these compounds, 2 mpk iv rat PK was conducted to calculate bioavailability (BA) (Table 11).

[4] = S9 metabolic stability, rat; format: in vitro ADME
Experimental: (§2) Among these, secondary MS measurements were conducted for Compound 25 (C0047), Compound 43 (C0216), and C0001 using the S9 method. This test measured the remaining % at 30, 45, and 60 minutes for four species: mouse, rat, dog, and human.

[5] = S9 metabolic stability, human; format: in vitro ADME
Experimental: as §2

Organ distribution = format: in vivo; parameters: Organ distribution Plasma (ng/ml): concentration or dose not given beside the values
[6] = S9 metabolic stability, mouse; format: in vitro ADME
Experimental: as §2

[7] = S9 metabolic stability, dog; format: in vitro ADME
Experimental: as §2

**Q.** Which “Metabolic stability (% remaining at 30 min) Rat” value [1] does the source give for `COc1ccc(CCN(c2nc3cccc(F)c3s2)C(C)c2ccc(N3CC[C@H](C(=O)O)C3)cc2)cc1` (stereo partly drawn) [Compound 42, (3S)-1-(4-(1-((7-fluorobenzo[d]thiazol-2-yl)(4-methoxyphenethyl)-amino)ethyl)phenyl)pyrrolidine-3-carboxylic acid] here?
**A.** The value was 43%.

**Q.** And the inhibition at 1 µM (Raw264.7 cells)?
**A.** The inhibition at 1 µM was 85.8%.

**Q.** And the inhibition at 10 µM (KARS1 and 37LR)?
**A.** The inhibition at 10 µM was 65.6%.

**Q.** And the inhibition at 3 µM (Raw 264.7 cells)?
**A.** The inhibition at 3 µM was 63.1%.

**Q.** What about the “Metabolic stability (% remaining at 30 min) Human” value [2] of the same molecule?
**A.** Its value is 76%.

**Q.** And the Cmax ([3]; 10 mg/kg, po, 10 mpk)?
**A.** The Cmax was 240 ng/mL.

**Q.** What about the Tmax ([3]; 10 mg/kg, po, 10 mpk) of the same molecule?
**A.** The Tmax was 0.67 h.

**Q.** And the half-life ([3]; 10 mg/kg, po, 10 mpk)?
**A.** Its half-life is 1.32 h.

**Q.** And the AUC ([3]; po, 10 mg/kg, 10 mpk)?
**A.** The AUC was 1420 ng·h/mL.

**Q.** For `COc1ccc(CCN(Cc2ccc(N3CC[C@H](C(=O)O)C3)cc2)c2nc3c(F)c(F)cc(F)c3s2)cc1` [Compound 43, (S)-1-(4-(((4-methoxyphenethyl)(4,5,7-trifluorobenzo[d]thiazol-2-yl)amino)methyl)phenyl)pyrrolidine-3-carboxylic acid], which “Metabolic stability (% remaining at each time) Rat (min) 30” value ([4]; 30 min) is on record?
**A.** The value was 99.2%.

**Q.** And the “Metabolic stability (% remaining at each time) Rat (min) 45” value ([4]; 45 min)?
**A.** The value was 81.6%.

**Q.** What about the “Metabolic stability (% remaining at each time) Rat (min) 60” value ([4]; 60 min) of the same molecule?
**A.** Its value is 88.0%.

**Q.** And the “Metabolic stability (% remaining at each time) Human (min) 30” value ([5]; 30 min)?
**A.** Its value is 87.3%.

**Q.** And the “Metabolic stability (% remaining at each time) Human (min) 45” value ([5]; 45 min)?
**A.** The value was 80.7%.

**Q.** And the “Metabolic stability (% remaining at each time) Human (min) 60” value ([5]; 60 min)?
**A.** The value was 92.4%.

**Q.** And the “Metabolic stability (% remaining at 30 min) Rat” value [1]?
**A.** Its value is 80%.

**Q.** And the “Organ distribution (ratio per plasma) Brain” value (Organ distribution; 0.5 h)?
**A.** The value was 0.09.

**Q.** What about the “Organ distribution (ratio per plasma) Brain” value (Organ distribution; 6.0 h) of the same molecule?
**A.** Its value is 0.92.

**Q.** And the “Organ distribution (ratio per plasma) Heart” value (Organ distribution; 0.5 h)?
**A.** Its value is 0.42.

**Q.** And the “Organ distribution (ratio per plasma) Heart” value (Organ distribution; 6.0 h)?
**A.** The value was 0.35.

**Q.** What about the “Organ distribution (ratio per plasma) Kidney” value (Organ distribution; 0.5 h) of the same molecule?
**A.** The value was 0.61.

**Q.** What about the “Organ distribution (ratio per plasma) Kidney” value (Organ distribution; 6.0 h) of the same molecule?
**A.** The value was 1.89.

**Q.** And the “Organ distribution (ratio per plasma) Liver” value (Organ distribution; 0.5 h)?
**A.** Its value is 1.70.

**Q.** What about the “Organ distribution (ratio per plasma) Liver” value (Organ distribution; 6.0 h) of the same molecule?
**A.** The value was 3.56.

**Q.** What about the “Organ distribution (ratio per plasma) Lung” value (Organ distribution; 0.5 h) of the same molecule?
**A.** The value was 4.30.

**Q.** What about the “Organ distribution (ratio per plasma) Lung” value (Organ distribution; 6.0 h) of the same molecule?
**A.** Its value is 0.55.

**Q.** What about the “Organ distribution Plasma (ng/ml)” value (Organ distribution; 0.5 h) of the same molecule?
**A.** The value was 19,420 ng/ml.

**Q.** What about the “Organ distribution Plasma (ng/ml)” value (Organ distribution; 6.0 h) of the same molecule?
**A.** The value was 5,366 ng/ml.

**Q.** What about the inhibition at 1 µM (Raw264.7 cells) of the same molecule?
**A.** The inhibition at 1 µM was 98.4%.

**Q.** And the pEC50 (Raw264.7 cells; KARS1-induced cell migration, 0.1~4 µM)?
**A.** The pEC50 was 6.19.

**Q.** And the inhibition at 10 µM (KARS1 and 37LR)?
**A.** The inhibition at 10 µM was 67.1%.

**Q.** And the inhibition at 3 µM (Raw 264.7 cells)?
**A.** The inhibition at 3 µM was 31.1%.

**Q.** And the pEC50 (Raw 264.7 cells; LN-induced cell migration, read-out: EC50 for cell migration inhibition induced by LN)?
**A.** The pEC50 was 5.29.

**Q.** And the “Metabolic stability (% remaining at 30 min) Human” value [2]?
**A.** Its value is 85%.

**Q.** What about the “Metabolic stability (% remaining at each time) Mouse (min) 30” value ([6]; 30 min) of the same molecule?
**A.** Its value is 79.8%.

**Q.** And the “Metabolic stability (% remaining at each time) Mouse (min) 45” value ([6]; 45 min)?
**A.** The value was 77.7%.

**Q.** And the “Metabolic stability (% remaining at each time) Mouse (min) 60” value ([6]; 60 min)?
**A.** The value was 73.2%.

**Q.** And the “Metabolic stability (% remaining at each time) Dog (min) 30” value ([7]; 30 min)?
**A.** Its value is 110.9%.

**Q.** And the “Metabolic stability (% remaining at each time) Dog (min) 45” value ([7]; 45 min)?
**A.** The value was 117.3%.

**Q.** What about the “Metabolic stability (% remaining at each time) Dog (min) 60” value ([7]; 60 min) of the same molecule?
**A.** Its value is 100.6%.

**Q.** What about the Cmax ([3]; 10 mg/kg, po, 10 mpk) of the same molecule?
**A.** Its Cmax is 3320 ng/mL.

**Q.** What about the Tmax ([3]; 10 mg/kg, po, 10 mpk) of the same molecule?
**A.** Its Tmax is 1.33 h.

**Q.** And the half-life ([3]; 10 mg/kg, po, 10 mpk)?
**A.** Its half-life is 0.95 h.

**Q.** And the Cmax ([3]; 30 mg/kg, po, 30 mpk)?
**A.** The Cmax was 12800 ng/mL.

**Q.** And the Tmax ([3]; 30 mg/kg, po, 30 mpk)?
**A.** The Tmax was 1.67 h.

**Q.** And the half-life ([3]; 30 mg/kg, po, 30 mpk)?
**A.** Its half-life is 1 h.

**Q.** What about the AUC ([3]; iv, 2 mg/kg, 2 mpk) of the same molecule?
**A.** Its AUC is 2690 ng·h/mL.

**Q.** And the AUC ([3]; po, 10 mg/kg, 10 mpk)?
**A.** The AUC was over 5000 ng·h/mL.

**Q.** What about the AUC ([3]; po, 10 mg/kg, 10 mpk (Table 11)) of the same molecule?
**A.** The AUC was 9710 ng·h/mL.

**Q.** And the AUC ([3]; po, 30 mg/kg, 30 mpk)?
**A.** Its AUC is 55300 ng·h/mL.

**Q.** What about the AUC ([3]; po, 30 mg/kg, 30 mpk (Table 11)) of the same molecule?
**A.** The AUC was 55300 ng·h/mL.

**Q.** What about the “BA (%)” value ([3]; po, 10 mpk against iv 2 mpk) of the same molecule?
**A.** Its value is 72.2%.

**Q.** And the “AUC (ng*h/ml)” value ([3]; po, 10 mpk, listed as 43 (C0216), 10 mg/kg)?
**A.** The value was 9,711 ng*h/ml.

**Q.** And the “BA (%)” value ([3]; po, 30 mpk against iv 2 mpk)?
**A.** Its value is 137.0%.

**Q.** And the “AUC value increase at 30 mpk” value ([3]; po, 30 mpk compared with 10 mpk)?
**A.** Its value is 5.7 times.
